Test results taken from patent US11571397B2, “Compositions and methods for treating seizure-induced sudden death” (ZOGENIX INTERNATIONAL LIMITED, priority 2018, dated 2023).

Assays:
[1] = system: DBA mice; settings: cited from earlier work; for seizure-induced respiratory failure and death: DBA mice, dose-dependent
[2] = system: DBA/1 mice; assay: Reversal of FFA's anticonvulsant and S-IRA blocking effects by selective 5-HT receptor antagonists in DBA/1 mice; type: in vivo, mouse
Method: (§1) For these experiments, DBA/1 mice (N=287) were used (after subjecting to the established priming procedure to assure consistent susceptibility to S-IRA following AGSz) to assess the effects of fenfluramine on various 5-HT receptors. Seizures were induced using an electrical bell, and resuscitation was accomplished using a rodent respirator (Faingold et al., 2010). At least 24 hours after priming, the mice received FFA (15 mg/kg, i.p.) and were tested for AGSz and S-IRA susceptibility 16 hours later. Thirty minutes prior to AGSz induction, a selective 5-HT receptor antagonist or vehicle was administered to evaluate if a specific receptor contributes to the ability of FFA to block S-IRA. Seizure behaviors were recorded on videotape, quantified, and compared statistically with vehicle-treated negative and FFA-treated positive controls (Chi-Square Test; significance set at p<0.05).
Specifically, the antagonists tested were: the 5-HT1A antagonist WAY100635 (0.1-15 mg/kg); the 5-HT2 antagonist Ritanserin (10-20 mg/kg); the 5-HT3 antagonist Ondansetron (1-3 mg/kg); the 5-HT4 antagonist GR125487 (20-60 mg/kg); the 5-HT5A antagonist SB669551 (10-20 mg/kg); and the 5-HT7 antagonist SB269970 (30-40 mg/kg). Studies investigating the effect of 5-HT6 and 5-HT1a/1b antagonists are also underway.
as §1, with “mice” for “mice (N=287)”

[3] = dietary supplementation, DBA/1 mice

In the case of `N[C@@H](Cc1c[nH]c2ccc(O)cc12)C(=O)O` [5-hydroxytryptophan], the S-IRA [1, 3] is given as “blocked” and the “incidence of AGSz behaviors” value [1, 3] is given as “significantly reduced”.

With `COc1[nH]c2ccc(F)cc2c1C(=O)OCC1CCN(CCNS(C)(=O)=O)CC1` [GR125487] the “reversal of the FFA-induced S-IRA blockade” value ([2]; antagonist 30 mg/kg, 30 min before AGSz, FFA 15 mg/kg i.p. 16 h before, p<0.05) was “partial reversal” and the “reversal of FFA's anticonvulsant effect against the severity of AGSz” value (shortened to “reversal of FFA's anticonvulsant effect”) ([2]; antagonist 30 and 60 mg/kg, FFA 15 mg/kg) was “able to reverse”.

In the case of `Cc1nccn1CC1CCc2c(c3ccccc3n2C)C1=O` (centres unmarked) [Ondansetron], the “reversal of FFA's effect” value ([2]; antagonist 1-3 mg/kg, FFA 15 mg/kg) is reported as “not effective at any dose tested”.

With `Cc1nc2sccn2c(=O)c1CCN1CCC(=C(c2ccc(F)cc2)c2ccc(F)cc2)CC1` [Ritanserin] the “reversal of FFA's anticonvulsant effect” value ([2]; antagonist 20 mg/kg, FFA 15 mg/kg) was “able to reverse”.

For `CC1CCN(CC[C@H]2CCCN2S(=O)(=O)c2cccc(O)c2)CC1` [SB269970], the “reversal of FFA's anticonvulsant effect” value ([2]; antagonist 30 mg/kg and 40 mg/kg, FFA 15 mg/kg) was “able to reverse”.

With `CN(C)CCN(Cc1ccc(-c2ccc(CNCCc3ccccc3)cc2)cc1)C(=O)CCC1CCCC1` [SB669551] the “effect on FFA's anticonvulsant effect” value ([2]; antagonist at 20 mg/kg, FFA 15 mg/kg) was “blocked”.

For `COc1ccccc1N1CCN(CCN(C(=O)C2CCCCC2)c2ccccn2)CC1` [WAY100635], the “reversal of FFA's effect” value ([2]; antagonist 0.1-15 mg/kg, FFA 15 mg/kg) was “not effective at any dose tested”.

For `CNCC[C@@H](Oc1ccccc1C)c1ccccc1` [atomoxetine], the “seizure-induced respiratory failure and death” value [1] is given as “prevent”.

For `CNCCC(Oc1ccc(C(F)(F)F)cc1)c1ccccc1` (centres unmarked) [fluoxetine], the “seizure-induced respiratory failure and death” value [1] is listed as “prevent”.

For `COCCCC/C(=N\OCCN)c1ccc(C(F)(F)F)cc1` [fluvoxamine], the “seizure-induced respiratory failure and death” value [1] is given as “prevent”.

In the case of `CN[C@H]1CC[C@@H](c2ccc(Cl)c(Cl)c2)c2ccccc21` [sertraline], the “seizure-induced respiratory failure and death” value [1] is listed as “prevent”.

In the case of `COc1ccc(C(CN(C)C)C2(O)CCCCC2)cc1` (centres unmarked) [venlafaxine], the “seizure-induced respiratory failure and death” value [1] is given as “prevent”.
